Assay results taken from patent US20230106032A1, “IMIDAZOTRIAZINES ACTING ON CANCER VIA INHIBITION OF CDK12” (Bayer Aktiengesellschaft, priority 2020, published 2023).

Key:
CDK2/CycE = target: T1, CDK2/CycE (Homo sapiens, UniProt P24941); assay: CDK2/CycE kinase assay (TR-FRET, 2 mM ATP); assay type: biochemical; conditions: read-out: CDK2/CyclinE, 2 mM ATP (high ATP) IC50-[mol/l] (median)
T1 construct: purchased ProQinase GmbH (Freiburg, Germany); host or cells: insect cells (Sf9)
Excerpt: CDK2/CycE-inhibitory activity of compounds of the present invention was quantified employing the CDK2/CycE TR-FRET assay as described in the following paragraphs.
Recombinant fusion proteins of GST and human CDK2 and of GST and human CycE, expressed in insect cells (Sf9) and purified by Glutathion-Sepharose affinity chromatography, were purchase from ProQinase GmbH (Freiburg, Germany). As substrate for the kinase reaction biotinylated peptide biotin-Ttds-YISPLKSPYKISEG (C-terminus in amid form) was used which can be purchased e.g. form the company JERINI peptide technologies (Berlin, Germany).
For the assay 50 nanoL of a 100 fold concentrated solution of the test compound in DMSO was pipetted into a black low volume 384 well microtiter plate or a black 1536 well microtiter plate (both Greiner Bio-One, Frickenhausen, Germany), 2 microL of a solution of CDK2/CycE in aqueous assay buffer [50 millimol/L Tris/HCl pH 8.0, 10 millimol/L MgCl2, 1.0 millimol/L dithiothreitol, 0.1 millimol/L sodium ortho-vanadate, 0.01% (v/v) Nonidet-P40 (Sigma)] were added and the mixture was incubated for 15 min at 22° C. to allow pre-binding of the test compounds to the enzyme before the start of the kinase reaction. Then the kinase reaction was started by the addition of 3 microL of a solution of adenosine-tri-phosphate (ATP, 3.33 millimol/L=> final conc. in the 5 microL assay volume is 2 millimol/L) and substrate (1.25 micromol/L=> final conc. in the 5 microL assay volume is 0.75 micromol/L) in assay buffer and the resulting mixture was incubated for a reaction time of 25 min at 22° C. The concentration of CDK2/CycE was adjusted depending of the activity of the enzyme lot and was chosen appropriate to have the assay in the linear range, typical concentrations were in the range of 10 ng/ml. The reaction was stopped by the addition of 3 microL of a solution of TR-FRET detection reagents (0.333 micromol/L streptavidine-XL665 [Cisbio Bioassays, Codolet, France] and 1.67 nanomol/L anti-RB(pSer807/pSer8l 1)-antibody from BD Pharmingen [#558389] and 2 nanomol/L LANCE EU-W1024 labeled anti-mouse IgG antibody [Perkin-Elmer, product no. AD0077, as an alternative a Terbium-cryptate-labeled anti-mouse IgG antibody from Cisbio Bioassays can be used]) in an aqueous EDTA-solution (167 millimol/L EDTA, 0.2% (w/v) bovine serum albumin in 100 millimol/L HEPES pH 7.5).
The resulting mixture was incubated 1 h at 22° C. to allow the formation of complex between the phosphorylated biotinylated peptide and the detection reagents. Subsequently the amount of phosphorylated substrate was evaluated by measurement of the resonance energy transfer from the Eu-chelate to the streptavidine-XL. Therefore, the fluorescence emissions at 620 nm and 665 nm after excitation at 350 nm was measured in a TR-FRET reader, e.g. a Pherastar (BMG Labtechnologies, Offenburg, Germany) or a Viewlux (Perkin-Elmer). The ratio of the emissions at 665 nm and at […] was taken as the measure for the amount of phosphorylated substrate. The data were normalised (enzyme reaction without inhibitor=0% inhibition, all other assay components but no enzyme=100% inhibition).

[1] = test system: MDA-MB-231 human breast cancer cells; assay: Proliferation assay MDA-MB-231 (crystal violet); assay type: cell-based; conditions: 96 h, MDA-MB-231 cells, 4 days, read-out: Prolif-MDA MB231 IC50-[mol/l] (median)
Procedure: (§1) Human tumour cells were originally obtained from the American Type Culture Collection (ATCC), or from the Deutsche Sammlung von Mikroorganismen und Zellkulturen (DSMZ, German Collection of Microorganisms and Cell Cultures). Cultivated tumour cells (CAL-120, human breast adenocarcinoma cells, DSMZ ACC-459; MDA-MB-231, human breast cancer cells, ATCC HTB-26) were plated at a density of 4,000 cells/well in a 96-well multititer plate in 200 microL of their respective growth medium supplemented 10% fetal calf serum. After 24 hours, the cells of one plate (zero-point plate) were stained with crystal violet (see below), while the medium of the other plates was supplemented with the test substances in various concentrations (0 micromol/L, as well as in the range of 0.01-10 micromol/L; the final concentration of the solvent dimethyl sulfoxide was adjusted to 0.1%) using a Tecan HP D300 Digital Dispenser. The cells were incubated for 4 days in the presence of test substances. Cell proliferation was determined by staining the cells with crystal violet: the cells were fixed by adding 20 microL/measuring point of an 11% glutaric aldehyde solution for 15 minutes at room temperature. After three washing cycles of the fixed cells with water, the plates were dried at room temperature. The cells were stained by adding 100 microL/measuring point of a 0.1% crystal violet solution (pH 3.0). After three washing cycles of the stained cells with water, the plates were dried at room temperature. The dye was dissolved by adding 100 microL/measuring point of a 10% acetic acid solution. The extinction was determined by photometry at a wavelength of 595 nm. The change of cell number, in percent, was calculated by normalization of the measured values to the extinction values of the zero-point plate (=0%) and the extinction of the untreated (0 μM) cells (=100%). The IC50 values (inhibitory concentration at 50% of maximal effect) were determined by means of a 4 parameter fit.

[2] = test system: CAL-120 human breast adenocarcinoma cells; assay: Proliferation assay CAL-120 (crystal violet); assay type: cell-based; conditions: 96 h, CAL-120 cells, 4 days, read-out: Prolif-CAL-120_ IC50-[mol/l] (median)
Procedure: as §1

CYCLIN K = CYCLIN K nuclear protein level: immunofluorescence/high content analysis in CAL-120 cells; assay type: cell-based, human; conditions: 24 h, nuclear CCNK staining, read-out: CYCLIN K degradation IF, DC50-[mol/l] (median)
Procedure: In the context of the present invention, the term “DC50 Cyclin K” refers to the DC50 values obtained according to the assay described in this section (7) herein below, i.e. the DC50 values for the degradation of Cyclin K.
CAL-120 human breast cancer cells (DSMZ ACC 459) are seeded in 1536-well microtiter plates (800 cells per well) containing 50 nanoL of compounds in Dose-Response. Control wells received DMSO or Reference Example 1. Plates are then incubated for 24 h at 37° C. in an humidified incubator and fixed with 4% PFA for 10 min. Then immunofluorescence (IF) against CYCLIN K (ThermoFisher Scientific CCNK Antibody #PA5-85020, rabbit, 1:200 dilution) is performed using standard IF protocols. Cells are then stained with Hoechst 33342 (Life Technologies, H-1399, 0.1 microg/ml) and imaged on an automated confocal microscopy system (e.g. Perkin Elmer Opera Phenix). Nuclear and cytoplasmic intensity as well as the nuclear/cytoplasmic intensity ratio is determined by automated image analysis using custom generated scripts (MetaXpress). Data is then transferred to Genedata Screener software, normalized to DMSO and control and DC50 values (degrading concentration to achieve 50% reduction of nuclear CCNK staining intensity relative to controls) are reported.

Row | SMILES | IC50 (CDK2/CycE) | IC50 [1] | IC50 [2] | DC50 (CYCLIN K)
1 | COc1cccc2[nH]c(CNc3nc(N4CCNCC4)nn4c(Br)cnc34)nc12 [Example 15, 7-bromo-N-[(4-methoxy-1H-benzimidazol-2-yl)methyl]-2-(piperazin-1-yl)imidazo[2,1-f][1,2,4]triazin-4-amine] | 14200 nM | 5.65 nM | 3.05 nM | 1.41 nM
2 | Fc1cccc2[nH]c(CNc3nc(N4CCOCC4)nn4c(Br)cnc34)nc12 [Example 12, 7-bromo-N-[(4-fluoro-1H-benzimidazol-2-yl)methyl]-2-(morpholin-4-yl)imidazo[2,1-f][1,2,4]triazin-4-amine] | > 20000 nM | 111 nM | 49.6 nM | 0.292 nM
3 | Fc1ccc2[nH]c(CNc3nc(N4CCNCC4)nn4c(Br)cnc34)nc2c1F [Example 10, 7-bromo-N-[(4,5-difluoro-1H-benzimidazol-2-yl)methyl]-2-(piperazin-1-yl)imidazo[2,1-f][1,2,4]triazin-4-amine] | > 20000 nM | 2.49 nM | 0.859 nM | 0.0632 nM
4 | C[C@@H]1CN(c2nc(NCc3nc4cc(F)ccc4[nH]3)c3ncc(Br)n3n2)C[C@H](C)N1 [Example 19, 7-bromo-2-[rel-(3R,5S)-3,5-dimethylpiperazin-1-yl]-N-[(5-fluoro-1H-benzimidazol-2-yl)methyl]imidazo[2,1-f][1,2,4]triazin-4-amine] | > 20000 nM | 2.73 nM | 1.14 nM | 0.0931 nM
5 | Fc1cccc2[nH]c(CNc3nc(N4CCNCC4)nn4c(Br)cnc34)nc12 [Example 22, 7-bromo-N-[(4-fluoro-1H-benzimidazol-2-yl)methyl]-2-(piperazin-1-yl)imidazo[2,1-f][1,2,4]triazin-4-amine] |  | 4.41 nM | 3.06 nM | 0.589 nM
6 | Fc1cccc(-c2cnc3c(NCc4nc5ccccc5[nH]4)nc(N4CCOCC4)nn23)c1 [Example 3, N-[(1H-benzimidazol-2-yl)methyl]-7-(3-fluorophenyl)-2-(morpholin-4-yl)imidazo[2,1-f][1,2,4]triazin-4-amine] | > 20000 nM |  |  | 23.9 nM
7 | OC[C@@H]1CCCCN1c1nc(NCc2nc3ccccc3[nH]2)c2ncc(Br)n2n1 [Example 17, [(2S)-1-(4-{[(1H-benzimidazol-2-yl)methyl]amino}-7-bromoimidazo[2,1-f][1,2,4]triazin-2-yl)piperidin-2-yl]methanol] | 1410 nM |  | 19.3 nM | 3.94 nM
8 | C[C@@H]1CN(c2nc(NCc3nc4c(F)c(F)ccc4[nH]3)c3ncc(Br)n3n2)C[C@H](C)O1 [Example 5, 7-bromo-N-[(4,5-difluoro-1H-benzimidazol-2-yl)methyl]-2-[rel-(2R,6S)-2,6-dimethylmorpholin-4-yl]imidazo[2,1-f][1,2,4]triazin-4-amine] | > 20000 nM |  | 7.97 nM | 1.16 nM
9 | Brc1cnc2c(NCc3nc4ccccc4[nH]3)nc(N3CCOCC3)nn12 [Example 1, N-[(1H-benzimidazol-2-yl)methyl]-7-bromo-2-(morpholin-4-yl)imidazo[2,1-f][1,2,4]triazin-4-amine] | 11700 nM | 42 nM |  | 0.876 nM
10 | N#Cc1cnc2c(NCc3nc4ccccc4[nH]3)nc(N3CCOCC3)nn12 [Example 2, 4-{[(1H-benzimidazol-2-yl)methyl]amino}-2-(morpholin-4-yl)imidazo[2,1-f][1,2,4]triazine-7-carbonitrile] | > 20000 nM |  | 103 nM | 3.58 nM
11 | CN(CC(C)(C)O)c1nc(NCc2nc3ccccc3[nH]2)c2ncc(C(F)(F)F)n2n1 [Example 30, 1-[{4-[(1H-benzimidazol-2-ylmethyl)amino]-7-(trifluoromethyl)imidazo[2,1-f][1,2,4]triazin-2-yl}(methyl)amino]-2-methylpropan-2-ol] | 4780 nM | 17.3 nM | 9.95 nM | 
